# Results: patent US9000036B2, “Compositions and methods for targeting of treating neoplasms” (priority 2006, dated 2015)
# Legend:
# [1] = system: D4 and CD8 antibodies activity; assay: CytoxiLux analysis (flow cytometry, FIGS. 1A-B); assay type: cell-based; details: lymphoma C57 mice
# Method: FIGS. 1A-B show flow cytometry results for CD4 and CD8 immunostaining cells
# (§1) Lymphoma cells line growth in the culture for days to reach about 10×10^3, then it is implanted into the right arm of mice C57, about one week, tumor grow to 1 cm size. We prepared that Bruceantin […], Adymicine 10 mg and hapten DNP 0.5 mg were added into the stannous chloride 0.05 mg solution for mixture incubate 5 minutes and produced a conjugated as complex. For treatment group: iv injection of this conjugated solution in 0.2 ml, two-time/week fro three weeks, for control group: iv injection of only 0.2 ml Ara-C, two-time/week for three weeks.
# [2] = system: CD4 and CD8; assay: Immunological pathological analysis of removed lymphoma tumor (CD4, CD8); assay type: in vivo; details: C57 mice, after three weeks iv treatment
# Method: as §1
# [3] = system: CD4 and CD8; assay: Immunological pathological analysis of removed osteosarcoma tumor (CD4, CD8); assay type: in vivo; details: C57 mice, after three weeks iv treatment
# Method: Osteosarcoma cell line growth in the culture for days to reach 10×10^3, then it is implanted into right arm of mice C57, wait about one week, tumor grow to 1 cm size. We prepared that Methylene Diphosphonate (MDP) 100 mg, Ara-C 50 mg and hapten DNP 0.5 mg were added into the stannous chloride 0.05 mg solution for mixture, incubate 5 minutes and produced a conjugated as complex. For treatment group: iv injection of this conjugated solution in 0.2 ml, two time/week for three weeks, for control group: iv injection of only 0.2 ml Ara-C, two time/week for three weeks. […] Surgical removed tumor for immunological pathological analysis, CD4 and CD8 show positive for MDP-Ara-C-DNP conjugated therapy group, control group show negative of CD4 and CD8.
# [4] = system: non-Hodgkin lymphoma; assay: Patient case: malignant lymphoma, chemotherapy and intravenous target therapy; assay type: in vivo, human; details: one patient, DDP, Vp-16 and IF0 given together
# Method: From November of 2002 to August of 2003, the radiotherapy at both axillary regions was administered with DT49Gy, the radiotherapy at both neck regions were administered with DT45Gy. […] The hydrops was drawn off by puncture from the right thoracic cavity, cytology reported: a large amount of lymphocytes and mesothelial cells. The patient was admitted to the hospital for further treatment.
# The B ultrasonotrophy on Feb.
# After the intravenous target therapy of Bruceantin, Tetrandrine, thalicarpine, maytansine seperately as target agents in combination with anti-cancer drugs by stannous chloride affection for a conjugate as complex for six courses (all kinds of anti-cancer drugs), the effect was obvious.
# From Feb. 27, 2006 to Mar. 24, 2006, the intravenous target chemotherapy of Bruceantin and Tetrandrine separately as target agents in combination with anti-cancer drugs by stannous chloride effective for conjugate as complex was administered for a period of four week. On Mar.
# The intravenous target chemotherapy of Bruceantin as targeting compound in combination with anti-cancer drugs by stannous chloride function for conjugate as complex was continued for several courses. The CT re-examination in Shandong Medical Imaging Research Institute on Jul.
# During the hospitalization, the patient was administered Bruceantin as targeting compound, in combination with the medicaments of 16 times (Arsenic trioxide 5 mg) and 6 times (Ara-C 50 mg), 12 times (cyclophosphamide 0.1), 2 times and VP 16) 50 mg.
# [5] = system: gastric antrum cancer, intrahepatic lump; details: human, in vivo, iv
# Method: The lateral lump by the lesser curvature of gastric antrum was administered a intratumoral chemotherapy for 3 times/week for three weeks, the lump at the head of pancreas region was administered intratumoral chemotherapy for 2 times/week fro two weeks, abdominal cavity was perfused for 6 times, in which 5-Fu+DDP 20 mg+IL-2 10^6 u were administered for 2 times, Bruceantin plus Adriamycin were perfused to abdominal cavity for 4 times in three weeks.
# The intrahepatic lump was administered intratumoral chemotherapy for once. […] ETIFENIN (EHIDA) as target agent in combination with anticancer drugs plus stannous chloride were mixed for a conjugate as a complex, then it was administered intravenous for target therapy and repeated same therapy for 6 times (the formulated medicament mainly comprises: DDP 20 mg for 2 times, 5-Fu 0.5 for 2 times, Ara-C 25 mg for 2 times).
compound,measurement,setting,value
"Nc1ccn([C@@H]2O[C@H](CO)[C@@H](O)[C@@H]2O)c(=O)n1 [Ara-C, Cytidine Arabinosyladenine]",index of D4 and CD8 antibodies activity,[1],28%
same,CD4 and CD8 in removed tumor,[2],negative
same,CD4 and CD8 in removed tumor,[3],negative
"N.N.[Cl][Pt][Cl] [DDP, Cisplatin]",bone marrow inhibition after chemotherapy,[4],inhibited to the III degree
O=P1(NCCCl)OCCCN1CCCl (stereo not shown) [IF0],bone marrow inhibition after chemotherapy,[4],inhibited to the III degree
COc1cc([C@@H]2c3cc4c(cc3[C@@H](O[C@@H]3O[C@@H]5CO[C@@H](C)O[C@H]5[C@H](O)[C@H]3O)[C@H]3COC(=O)[C@H]23)OCO4)cc(OC)c1O [Vp-16],bone marrow inhibition after chemotherapy,[4],inhibited to the III degree
ETIFENIN (EHIDA) as target agent in combination with anticancer drugs,symptoms after treatment,[5],"abdominal pain, abdominal distention, decreased appetite, accompanied by night sweating and debilitation"
